Reference: patent publication US11447477B2, “Indoleamine-2,3-dioxygenase inhibitor, the preparative method and the use thereof” (HINOVA PHARMACEUTICALS INC., priority 2017, dated 2022)

Key:
[1] = biological target: IDO protease in HeLa cells (Homo sapiens (Human), UniProt P14902); experiment: Inhibition of IDO protease in HeLa cells (IFNγ-induced, Trp/Kyn by RapidFire/MS); format: cell-based; conditions: for IC50: HeLa cells, 25 ng/ml IFNγ, 48 hours
Text: 1) Experimental Materials and Apparatus • HeLa cells (ATCC, Cat. No. CCL-2) • γ interferon IFNγ (R&D, Cat. No. 285-IF-100) • DMEM High Glucose media (Invitrogen, Cat. No. 11965-084) • Fetal bovine serum FBS (Invitrogen, Cat. No. 10100-147) • Trypsin-EDTA (0.050%)(Invitrogen, Cat. No. 25300-054) • Phosphate buffer solution PBS, pH 7.4 (Invitrogen, Cat. No. 10010023) • Penicillin-Streptomycin (P/S) (Invitrogen, Cat. No. 15070063) • L-tryptophan (Trp) (Sigma, Cat. No. T8941) • L-kynurenine (Kyn) (Sigma, Cat. No. K8625) • N′-diformylkynurenine (NFK) (J&K, Cat. No. F700490) • 3-Nitro-L-tyrosine (J&K, Cat. No. N0905) • Acetonitrile (Sigma, Cat. No. 34851) • Dimethylsulfoxide DMSO (Sigma, Cat. No. D8418) • Inhibitor INCB024360 (Selleckchem, Cat. No. S7910) • Inhibitor INCB024360-analog (MedKoo, Cat. No. 205493) • Inhibitor NLG919 (Selleckchem, Cat. No. S7111) • 96 well transparent flat bottom polystyrene cell culture plate (Corning, Cat #3599) • 96 well V-bottom polypropylene plate (PE, Cat #6008290) • 96 well U-shaped bottom polypropylene plate (PE, Cat. No. 6008390) • Multidrop™ distribution box with small metal tip (Thermo, Cat. No. 24073295) • Multidrop™ distribution box of standard tube with metal tip (Thermo, Cat. No. 24072670) • Automatic filling platform (Agilent) • Multidrop™ Combi automatic liquid separator (Thermo) • Centrifugal machine (Eppendorf) • Cell incubator (Thermo) • Cell counter (Thermo) • RapidFire Mass system (Agilent)
2) Experimental Method for Compound Assay
The compound (compounds 4, 8, 9, 78, 91 of the present invention) was dissolved in DMSO to prepare a solution with a concentration of 3 mM, and then 15 μL of the compound solution is added to a 96 well plate, and serially diluted by 3 times dilution to obtain 10 points. 2 μL compound solution or DMSO (for HPE/ZPE) was transferred to a new 96 well plate. HeLa cell suspension was seeded into the cell culture plate with a density of 1×10^4 cells/well. For HPE control well, the cell culture medium for detection was DMEM, including 10% FBS, 1% P/S, and 122 μM Trp; for ZPE control well and the compound wells, the cell culture medium was DMEM, including 10% FBS, 1% P/S, […], and 25 ng/ml IFNγ. 192 μL detection medium prepared as above was added to a 96 well plate. 78 μL DMEM was added to the compound plate and thoroughly mixed, and then 8 μL compound solution diluted with DMEM was transferred to the 96 well plate containing the detection medium. The cell culture plate was taken out, and the cell culture medium was discarded, then 100 μL compound solution mentioned above was transferred to the cell culture plate. The cell culture plate was moved into the cell incubator and kept for 48 hours. When detected, the cell culture plate was taken out, and 50 μL supernatant was transferred to a new 96 well plate, to which was added 200 μL acetonitrile, and the plate was mixed well. The plate was centrifugated at 4° C. for 20 minutes (rotatory speed being 4000 rpm), and 40 μL supernatant was transferred to another 96 well plate, to which was further added 360 μL deionized water containing […] internal reference (3-nitro-L-tyrosine). The plate was fully mixed, and then the sample was detected by RapidFire/MS system. The standards of L-tryptophan (Trp) and L-kynurenine (Kyn) were dissolved in water to obtain a concentration of 10 mM, and the standard curve was performed by three times dilution. The inhibitory ratio was calculated by obtained data, and the IC50 curve was completed by processing the resultant data with Graphpad Prism5 software.

[2] = biological target: human IDO1 protease (Homo sapiens (Human), UniProt P14902); experiment: Inhibitory activity against human IDO1 protease (absorbance test method); format: biochemical; conditions: IDO1 (His-tag) enzyme, absorbance at 320 nm
Protocol: 1) Experimental Materials and Apparatus: • IDO1 (His-tag) enzyme (BPS Bioscience) • L-tryptophan (Sigma) • Methylene blue (Sigma) • Catalase originated from the liver of cattle (Sigma) • L-ascorbic acid (Sigma) • Glycerol (Sigma) • Potassium dihydrogen phosphate solution (Sigma) • Tween 20 (Sigma) • Automatic sampling platform Liquid handler (Bravo & Echo) • Microplate Reader SpectraMax M5e (Molecular Devices)
2) Test Method of Compounds: The Compounds are Determined by Absorbance Test Method:
The tested compounds and the reference compounds are dissolved in DMSO to prepare a high concentration of storage solution. The stock solution of reference compound was diluted with DMSO to prepare a 100× solution. In the first column of the working plate, 8 μL above tested compounds and 8 μL 100× reference compound were respectively added as the highest concentration, and then the highest concentrations were subjected to three times dilution to obtain 11 concentrations and prepare 100× solution. 0.5 μL solution was transferred from the above plate to the detection plate. […]. For HPE and ZPE control wells, 0.5 μL 100% DMSO was added.
25 μL 2×IDO1 (His-tag) enzyme solution (containing L-ascorbic acid, methylene blue, and catalase) was added to each well. 25 μL reaction solution without IDO1 (His-tag) enzyme was added into HPE control well. The test plate was centrifugated at 1000 rpm for 1 minute to mix well. Then, the test plate was incubated at room temperature for 30 minutes. 25 μL above 2× substrate (L-tryptophan) solution was added to each well. The test plate was centrifugated at 1000 rpm for 1 minute to mix well. The detection plate was placed on ELISA (SpectraMax M5e), the temperature was set at 25° C., and the absorbance (OD value) was measured at 320 nm every 10 minutes till 60 minutes.
Calculating the increase ratio of absorbance: the slope of the absorbance increase curve from 10 min to 60 min is derived from SpectralMax M5e. The inhibition coefficient of compound was calculated: the inhibition ratio of compound=(the absorbance increase ratio of ZPE control well−the absorbance increase ratio of compound well)/(the absorbance increase ratio of ZPE control well−the absorbance increase ratio of HPE control well)×100. Results was analyzed by Prism 5.0.

[3] = Pharmacokinetics in mice; format: in vivo, ICR mice; conditions: for Cmax: read-out: Blood concentration Cmax; for AUC: read-out: Curve area AUC; for Tmax: read-out: Peak time tmax; for MRT inf: read-out: Retention time MRTinf
Text: 1) Experimental Materials and Apparatus: • LC-20AD HPLC system (SHIMADZU, Japan) • API4000 Triple quadrupole mass spectrometer (Applied Biosystem, USA) • PhenixWinnolin Pharmacokinetic software (Version 6.3, Certara, USA) • High speed freezing centrifuge (Thermo Fisher Scientific) • Analytical balance (SECURA225D-1CN) • Experimental animals: ICR mice (Chengdu Dashuo Experimental Animal Co., Ltd) • DMA (Sigma) • CMC-Na (Chengdu Kelong Chemical Co., Ltd) • Heparin (Chengdu Kelong Chemical Co., Ltd)
2) Experimental Methods and Results
A solution at concentration of 0.5 mg/mL was prepared. 0.2 ml of the final solution prepared was taken out and stored at −20° C. for concentration determination. Nine healthy adult ICR mice (20-30 g) were fasted overnight (free drinking water) and then administrated at a dosage of 0.2 mL/10 g by gavage. Prior to administration and 0.5, 1, 2, 4, 6, 8, 12, 24 h after administration, 0.1 mL blood was collected from the posterior orbital venous plexus and centrifuged at 4° C. for 5 min to separate the plasma, which was preserved at −20° C. for testing. Then the concentrations of tested compounds in the plasma were determined by LC/MS/MS.

[4] = ICR, mouse, 10 mg/kg, PO, 10 mpk, plasma

human IDO1 protease, sequence (P14902 whole entry): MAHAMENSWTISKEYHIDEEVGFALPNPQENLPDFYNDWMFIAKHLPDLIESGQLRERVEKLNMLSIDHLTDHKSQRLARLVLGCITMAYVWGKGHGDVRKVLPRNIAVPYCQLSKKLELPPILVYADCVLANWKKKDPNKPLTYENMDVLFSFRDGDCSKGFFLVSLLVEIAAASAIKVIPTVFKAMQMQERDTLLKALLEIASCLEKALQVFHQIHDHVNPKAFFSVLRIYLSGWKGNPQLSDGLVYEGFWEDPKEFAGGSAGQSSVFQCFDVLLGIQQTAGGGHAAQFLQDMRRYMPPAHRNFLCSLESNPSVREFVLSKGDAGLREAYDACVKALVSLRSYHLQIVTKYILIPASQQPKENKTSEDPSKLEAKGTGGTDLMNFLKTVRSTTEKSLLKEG
IDO protease in HeLa cells, sequence (P14902 whole entry): as above

IC50 [2] [nM]	IC50 [1] [nM]	SMILES	also measured
128	–	NS(=O)(=O)N1CC(F)(CNc2nonc2/C(=N/O)Nc2ccc(F)c(Br)c2)C1 [Compound 91]	inhibitory activities on IDO protease in HeLa cells (in words) [1]: excellent
84	15	NS(=O)(=O)N1CC[C@H](CNc2nonc2/C(=N/O)Nc2ccc(F)c(Br)c2)C1 [Compound 9, (R)—N-(3-bromo-4-fluorophenyl)-N′-hydroxyl-4-(((1-sulfamoylpyrrolidine-3-yl)methyl)amino)-1,2,5-oxadiazole-3-formamidine]	–
55	5	NS(=O)(=O)N1CC(CNc2nonc2/C(=N/O)Nc2ccc(F)c(Br)c2)C1 [Compound 4, N-(3-Bromo-4-fluorophenyl)-N′-hydroxyl-4-(((1-sulfamoylazetidin-3-yl)methyl)amino)-1,2,5-oxadiazole-3-formamidine]	inhibitory activities on IDO protease in HeLa cells (in words) [1]: excellent; half-life time compared with the reference compound INCB-24360 (in words) [3]: longer half-life time; Cmax [3, 4]: 1080 ng/mL; AUC [3, 4]: 1760 ng·h/mL; half-life ([3]; ICR, mouse, 10 mg/kg, PO, 10 mpk, plasma, read-out: Half time t1/2 (converted)): 5.06 h; Tmax [3, 4]: 0.5 h; MRT inf [3, 4]: 3.28 h
–	74	NS(=O)(=O)N1CC(F)(CNc2nonc2C(=NO)Nc2ccc(F)c(Br)c2)C1 [Compound 91, (Z)—N-(3-bromo-4-fluorophenyl)-4-(3-fluoro-1-sulfadiazin-3-yl)methyl)amino)-N′-hydroxyl 1,2,5-oxadiazol-3-carboxyoximide]	–
112	17	NS(=O)(=O)N1CC[C@@H](CNc2nonc2/C(=N/O)Nc2ccc(F)c(Br)c2)C1 [Compound 8, (S)—N-(3-Bromo-4-fluorophenyl)-N′-hydroxyl-4-(((1-sulfamoylpyrrolidine-3-yl)methyl)amino)-1,2,5-oxadiazole-3-formamidine]	–
–	–	NS(=O)(=O)NCCNc1nonc1C(=NO)Nc1ccc(F)c(Br)c1 [INCB24360, reference compound]	Cmax [3, 4]: 992 ng/mL; AUC [3, 4]: 1810 ng·h/mL; Tmax [3, 4]: 0.5 h; MRT inf [3, 4]: 2.03 h
–	75	NC(=O)N1CC(CNc2nonc2/C(=N/O)Nc2ccc(F)c(Br)c2)C1 [Compound 140, (Z)—N-(3-bromo-4-fluorophenyl)-N′-hydroxyl-4-(((1-carbamoylazetidin)-3-methyl)amino)-1,2,5-oxadiazol-3-formamidine]	–
81	9	[2H]C([2H])(Nc1nonc1/C(=N/O)Nc1ccc(F)c(Br)c1)C1CN(S(N)(=O)=O)C1 [Compound 150, (Z)—N-(3-bromo-4-fluorophenyl)-N′-hydroxyl-4-(((1-sulfadiazin-3-yl)methyl-D2)amino)-1,2,5-oxadiazol-3-carboxyoximide]	–
–	10	NS(=O)(=O)N1CC(CCNc2nonc2/C(=N/O)Nc2ccc(F)c(Br)c2)C1 [Compound 132, (Z)—N-(3-bromo-4-fluorophenyl)-N′-hydroxyl-4-((2-(1-sulfamoylazetidin-3-yl)ethyl)amino)-1,2,5-oxadiazol-3-formamidine]	–
–	18	NS(=O)(=O)N1CC(CCSc2nonc2/C(=N/O)Nc2ccc(F)c(Br)c2)C1 [Compound 149, (Z)—N-(3-bromo-4-fluorophenyl)-N′-hydroxyl-4-((2-(1-sulfamoylazetidin-3-yl)ethyl)thio)-1,2,5-oxadiazol-3-formamidine]	–
69	13	CNS(=O)(=O)N1CC(CNc2nonc2C(=NO)Nc2ccc(F)c(Br)c2)C1 [Compound 78]	–
–	14	NS(=O)(=O)N1CC(CSc2nonc2/C(=N/O)Nc2ccc(F)c(Br)c2)C1 [Compound 148]	–
